# Results reported in patent US20220332774A1, “THERAPEUTIC MITOCHONDRIAL PEPTIDES” (priority 2019, published 2022).
# Tested on: 3T3-L1 Mouse Adipocytes
# Experiment: Free fatty acid levels in cultured 3T3-L1 mouse adipocytes (isoproterenol stimulated)
# Assay type: cell-based
# Conditions: free fatty acid in medium; 5 μM peptide, 20-22 h pre-incubation then 3 h with 0.1 nM isoproterenol; isoproterenol alone = 100%
# Method: The effect of the peptides on fatty acid metabolism can be assessed using an assay to monitor free fatty acid levels produced by cultured cells such as mouse adipocytes. Peptide arrays were initially prepared as 5 mM stock in DMSO and diluted to 0.5 mM in H2O; peptides were used at a final concentration of 5 μM (0.1% DMSO). Calculations for peptide concentrations based on approximate molecular weight of 2000 Daltons. […] Mouse 3T3-L1 cells purchased from ZenBio (Research Triangle Park, NC) were seeded at 3,000 cells per well in 96-well plates in Pre-adipocyte Medium (Zen-Bio) and grown to confluence at 37° C. in a humidified atmosphere of 5% CO2/95% air. Two days after confluence, cells were placed in Adipocyte Differentiation Medium (Zen-Bio) and cultured for three additional days at 37° C. in a humidified atmosphere of 5% CO2/95% air. The culture medium was then replaced with Adipocyte Maintenance Medium (Zen-Bio) and the cells maintained for an additional 9 days at 37° C. in a humidified atmosphere of 5% CO2/95% air with partial medium replacement every other day. Following 12 days of differentiation, medium was replaced Adipocyte Maintenance Medium without insulin and the cultures placed at 37° C. in a humidified atmosphere of 5% CO2/95% air. On day 13 of differentiation, test peptides were added directly to each well (without replacing the medium) at a final concentration of 5 μM in 0.1% DMSO and incubated for 20-22 hours at 37° C. in a humidified atmosphere of 5% CO2/95% air. […] Cells were incubated for 3 hours in Assay Buffer (Zen-Bio) at 37° C. in a humidified atmosphere of 5% CO2/95% air. Following 3 h incubation, conditioned medium from each well was transferred to a fresh 96-well plate. Free fatty acid concentrations in the medium were determined using a Free Fatty Acid Assay kit (Zen-Bio) according to the manufacturer's instructions; absorbance was measured using a Cytation 3 plate reader at 540 nm (BioTek, Winooski, Vt.). Treatment with 0.1 nM isoproterenol alone was used as the free fatty acid level stimulatory control. Absorbance values were expressed as percent control activity relative to 0.1 nM isoproterenol alone treated cells, 100%. The relative standard deviation of the isoproterenol control was <10%. Insulin at 0.25 nM was used as a potent control for decreasing free fatty acid levels. […] Data presented are representative values from 2 independent experiments with each data point performed in triplicate in each independent experiment.
row,Compound,Percent of Isoproterenol Control Activity
1,84 (MMKGKMKWKVKNRV) [compound 84],99%
2,118 (MSLSYLQDSTY) [compound 118],98%
3,188 (DWSNWVWGVQLYVWDFLGSGCWAW) [compound 188],104%
4,38 (MGLWLVCWVL) [compound 38],103%
5,148 (MVLNLRVHRLRRTNLQLLHTSPIIP) [compound 148],103%
6,89 (MMNSDSIIPS) [compound 89],111%
7,55 (MKHRQVLWVLSCGS) [compound 55],98%
8,44 (MGVKFFTLST) [compound 44],112%
9,111 (MQRWFFMSLVVVVVRA) [compound 111],89%
10,205 (VQTVSISWASEMLVLVSFVVSV) [compound 205],105%
11,161 (MWLIEEYAMSDF) [compound 161],99%
12,145 (MVKPHLQNASI) [compound 145],94%
13,140 (MTYSPEQSQLQYMHQQTMFNQ) [compound 140],100%
14,92 (MMTWSPWKPVATKNVEP) [compound 92],99%
15,156 (MVVHWMSGVGLPWLWGVGV) [compound 156],97%
16,50 (MHQSCKPEMKTFFQGQI) [compound 50],100%
17,199 (PLCKIHCRIHLYYQSLPHNNIHVP) [compound 199],105%
18,116 (MSGVRKEVSLL) [compound 116],90%
19,172 (MYTNKQCSTSNYY) [compound 172],94%
20,131 (MTELLTPNWTNLSPY) [compound 131],110%
21,33 (MGGGVLLGLQ) [compound 33],103%
22,2 (MAASVERGFIFLV) [compound 2],93%
23,10 (MATKKNFMEKGTRAGDMGSKPHS) [compound 10],94%
24,83 (MMGMWLVGHYVLSC) [compound 83],102%
25,54 (MKFEIWLGWC) [compound 54],104%
26,45 (MHGELPWVVN) [compound 45],98%
27,112 (MQSGVLQSLAVTEIKYCNLL) [compound 112],103%
28,29 (MGDCAVCDA) [compound 29],90%
29,137 (MTSLHNSFYSKDTSLRTPLMTP) [compound 137],115%
30,5 (MAHYSQIPSRPHGWPPSD) [compound 5],98%

# Same assay, conditions: insulin 0.25 nM with 0.1 nM isoproterenol, 3 h
row,Compound,Free fatty acid levels
1,insulin [reference compound],at or below levels for unstimulated control without isoproterenol

# Tested on: C2C12 Cells
# Experiment: Glucose utilization in cultured C2C12 cells (myotubes)
# Assay type: cell-based, mouse
# Conditions: glucose concentration in medium relative to untreated cells; 5 μM peptide, 22 h
# Method: The effect of the peptides on glucose homeostasis can be assessed using an assay to monitor glucose utilization by cultured cells such as mouse myotubes. Peptide arrays were initially prepared as 5 mM stock in DMSO and diluted to 0.5 mM in H2O; peptides were used at a final concentration of 5 μM (0.1% DMSO). Calculations for peptide concentrations based on approximate molecular weight of 2000 Daltons. C2C12 mouse muscle cell line was purchased from Millipore Sigma (Saint Louis, Mo.). C2C12 cells were seeded in standard medium (DMEM/low glucose (1 g/L)+10% Fetal Bovine Serum+antibiotics) at 7,500 cells/well on 96-well plates and grown to confluence at 37° C. in a humidified atmosphere of 5% CO2/95% air. Three days after plating the medium was removed and with Differentiation Medium (DMEM/low glucose (1 g/L)+2% Horse Serum+antibiotics) added. The cultures were placed at 37° C. in a humidified atmosphere of 5% CO2/95% air for 5 days with partially replacement of medium daily. After 5 days of differentiation, the medium was removed from myotube cultures and replaced with Assay Medium (DMEM/low glucose (1 g/L)+antibiotics). Culture were placed at 37° C. in a humidified atmosphere of 5% CO2/95% air for 5 h. Following the 5 h incubation the medium was removed and fresh Assay Medium containing compounds was added; 5 μM peptide or 1 mM metformin as a potent stimulator of glucose utilization. Cells were incubated for 22 h at 37° C. in a humidified atmosphere of 5% CO2/95% air. Following 22 h incubation, conditioned medium from each well was transferred to a fresh 96-well plate. Glucose concentrations in the medium were determined using a Glucose Assay kit (Abcam; Cambridge, Mass.) according to the manufacturer's instructions; absorbance measured using a Cytation 3 plate reader at 570 nm (BioTek, Winooski, Vt.). Untreated cells were used as reference for basal glucose utilization. Absorbance values were expressed as percent control activity relative to untreated treated cells for 5 μM peptide. The relative standard deviation from plate to plate of untreated control was <10%. […] Data presented are representative values from 2-3 independent experiments with each data point performed in triplicate in each independent experiment.
row,Compound,Percent of Control Activity
1,84 (MMKGKMKWKVKNRV) [compound 84],95%
2,118 (MSLSYLQDSTY) [compound 118],83%
3,188 (DWSNWVWGVQLYVWDFLGSGCWAW) [compound 188],113%
4,38 (MGLWLVCWVL) [compound 38],108%
5,148 (MVLNLRVHRLRRTNLQLLHTSPIIP) [compound 148],103%
6,89 (MMNSDSIIPS) [compound 89],112%
7,55 (MKHRQVLWVLSCGS) [compound 55],103%
8,44 (MGVKFFTLST) [compound 44],103%
9,111 (MQRWFFMSLVVVVVRA) [compound 111],101%
10,205 (VQTVSISWASEMLVLVSFVVSV) [compound 205],99%
11,161 (MWLIEEYAMSDF) [compound 161],103%
12,145 (MVKPHLQNASI) [compound 145],103%
13,140 (MTYSPEQSQLQYMHQQTMFNQ) [compound 140],91%
14,92 (MMTWSPWKPVATKNVEP) [compound 92],93%
15,156 (MVVHWMSGVGLPWLWGVGV) [compound 156],85%
16,50 (MHQSCKPEMKTFFQGQI) [compound 50],99%
17,199 (PLCKIHCRIHLYYQSLPHNNIHVP) [compound 199],94%
18,116 (MSGVRKEVSLL) [compound 116],99%
19,172 (MYTNKQCSTSNYY) [compound 172],106%
20,131 (MTELLTPNWTNLSPY) [compound 131],107%
21,33 (MGGGVLLGLQ) [compound 33],111%
22,2 (MAASVERGFIFLV) [compound 2],99%
23,10 (MATKKNFMEKGTRAGDMGSKPHS) [compound 10],100%
24,83 (MMGMWLVGHYVLSC) [compound 83],95%
25,54 (MKFEIWLGWC) [compound 54],103%
26,45 (MHGELPWVVN) [compound 45],108%
27,112 (MQSGVLQSLAVTEIKYCNLL) [compound 112],93%
28,29 (MGDCAVCDA) [compound 29],109%
29,137 (MTSLHNSFYSKDTSLRTPLMTP) [compound 137],116%
30,5 (MAHYSQIPSRPHGWPPSD) [compound 5],101%

# Same assay, conditions: metformin 1 mM, 22 h, across all plates
row,Compound,reduction of extracellular glucose compared to untreated controls
1,"CN(C)C(=N)N=C(N)N [Metformin, reference compound]",50-70%

# Tested on: H4-IIE Cells
# Experiment: Glucose production in cultured H4-IIE cells
# Assay type: cell-based, rat
# Conditions: 0.5-1 nM insulin, 24 h
# Method: The effect of the peptides on glucose homeostasis can be assessed using an assay to monitor glucose production by cultured cells such as rat hepatocytes. Peptide arrays were initially prepared as 5 mM stock in DMSO and diluted to 0.5 mM in H2O; peptides were used at a final concentration of 5 μM (0.1% DMSO). Calculations for peptide concentrations based on approximate molecular weight of 2000 Daltons. H4-IIE rat hepatic cell line was purchased from American Type Culture Collection (Manassas, Va.). H4-IIE cells were seeded in standard medium (DMEM/high glucose+10% Fetal Bovine Serum+antibiotics) at 100,000 cells/well on 96-well plates and allowed to adhere overnight at 37° C. in a humidified atmosphere of 5% CO2/95% air. 24 h after seeding, the medium was removed, cells were rinsed with glucose free DMEM, and the medium replaced with Glucose Production Medium (glucose free DMEM+2 mM sodium pyruvate+10 mM sodium lactate+antibiotics). The cultures were placed at 37° C. in a humidified atmosphere of 5% CO2/95% air overnight. The next morning, the medium was removed and fresh Glucose Production Medium containing compounds was added; 5 uM peptide or 0.5-1 nM insulin as a potent inhibitor of glucose production. Cells were incubated for 24 h at 37° C. in a humidified atmosphere of 5% CO2/95% air. Following 24 h incubation, conditioned medium from each well was transferred to a fresh 96-well plate. Glucose concentrations in the medium were determined using a Glucose Assay kit (Abcam; Cambridge, Mass.) according to the manufacturer's instructions; absorbance measured using a Cytation 3 plate reader at 570 nm (BioTek, Winooski, Vt.). Untreated cells were used as reference for maximal glucose production. Absorbance values were expressed as percent control activity relative to untreated treated cells for 5 μM peptide. The relative standard deviation from plate to plate of untreated control was <25%. […] Glucose levels for 0.5-1 nM insulin treatment were <5% of the untreated control value. Data are presented as representative values from 2-3 independent experiments with each data point performed in triplicate in each independent experiment.
row,Compound,"Glucose levels, % of the untreated control value"
1,insulin [reference compound],< 5%

# Same assay, conditions: glucose concentration in medium relative to untreated cells; 5 μM peptide, 24 h
row,Compound,Percent of Control Activity
1,84 (MMKGKMKWKVKNRV) [compound 84],108%
2,118 (MSLSYLQDSTY) [compound 118],126%
3,188 (DWSNWVWGVQLYVWDFLGSGCWAW) [compound 188],125%
4,38 (MGLWLVCWVL) [compound 38],111%
5,148 (MVLNLRVHRLRRTNLQLLHTSPIIP) [compound 148],109%
6,89 (MMNSDSIIPS) [compound 89],110%
7,55 (MKHRQVLWVLSCGS) [compound 55],118%
8,44 (MGVKFFTLST) [compound 44],103%
9,111 (MQRWFFMSLVVVVVRA) [compound 111],91%
10,205 (VQTVSISWASEMLVLVSFVVSV) [compound 205],102%
11,161 (MWLIEEYAMSDF) [compound 161],114%
12,145 (MVKPHLQNASI) [compound 145],102%
13,140 (MTYSPEQSQLQYMHQQTMFNQ) [compound 140],97%
14,92 (MMTWSPWKPVATKNVEP) [compound 92],124%
15,156 (MVVHWMSGVGLPWLWGVGV) [compound 156],106%
16,50 (MHQSCKPEMKTFFQGQI) [compound 50],106%
17,199 (PLCKIHCRIHLYYQSLPHNNIHVP) [compound 199],111%
18,116 (MSGVRKEVSLL) [compound 116],123%
19,172 (MYTNKQCSTSNYY) [compound 172],111%
20,131 (MTELLTPNWTNLSPY) [compound 131],97%
21,33 (MGGGVLLGLQ) [compound 33],100%
22,2 (MAASVERGFIFLV) [compound 2],119%
23,10 (MATKKNFMEKGTRAGDMGSKPHS) [compound 10],87%
24,83 (MMGMWLVGHYVLSC) [compound 83],109%
25,54 (MKFEIWLGWC) [compound 54],113%
26,45 (MHGELPWVVN) [compound 45],107%
27,112 (MQSGVLQSLAVTEIKYCNLL) [compound 112],144%
28,29 (MGDCAVCDA) [compound 29],106%
29,137 (MTSLHNSFYSKDTSLRTPLMTP) [compound 137],96%
30,5 (MAHYSQIPSRPHGWPPSD) [compound 5],122%
